According to article PMC6979384, “Characterization of the plant homeodomain (PHD) reader family for their histone tail interactions” (Epigenetics & Chromatin, 2020):
Where no end group is shown, it is not given here.

Columns and labels:
Test in all cases: Histone peptide microarray
Format in all cases: binding, human
[1] = system: AIRE (PP); conditions: sheet "Array Heatmap", total n = 4; for Array Heatmap value (peptide array signal): AIRE (PP), each array performed twice
How it was run: (§1)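 Purified PHD finger domains fused to GST are screened against 293 synthetic histone peptides bearing one or several post-translational modifications. The protein is used at 0.5 μM, and the signal from four replicate arrays is averaged, with standard deviation given.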

[2] = system: BAZ2B; conditions: sheet "Array Heatmap", total n = 4; for Array Heatmap value (peptide array signal): BAZ2B, each array performed twice
How it was run: as §1

[3] = system: BPTF (PB); conditions: sheet "Array Heatmap", total n = 4; for Array Heatmap value (peptide array signal): BPTF (PB), each array performed twice
How it was run: as §1

[4] = system: CHD4 (PPCC); conditions: sheet "Array Heatmap", total n = 4; for Array Heatmap value (peptide array signal): CHD4 (PPCC), each array performed twice
How it was run: as §1

[5] = system: CHD5 (PCC); conditions: sheet "Array Heatmap", total n = 4; for Array Heatmap value (peptide array signal): CHD5 (PCC), each array performed twice
How it was run: as §1

[6] = system: CHD5 (PPCC); conditions: sheet "Array Heatmap", total n = 4; for Array Heatmap value (peptide array signal): CHD5 (PPCC), each array performed twice
How it was run: as §1

[7] = system: DIDO1; conditions: sheet "Array Heatmap", total n = 4; for Array Heatmap value (peptide array signal): DIDO1, each array performed twice
How it was run: as §1

[8] = system: DPF2 (PPC2W2); conditions: sheet "Array Heatmap", total n = 4; for Array Heatmap value (peptide array signal): DPF2 (PPC2W2), each array performed twice
How it was run: as §1

[9] = system: ING1; conditions: sheet "Array Heatmap", total n = 4; for Array Heatmap value (peptide array signal): ING1, each array performed twice
How it was run: as §1

[10] = system: ING2; conditions: sheet "Array Heatmap", total n = 4; for Array Heatmap value (peptide array signal): ING2, each array performed twice
How it was run: as §1

[11] = system: ING3; conditions: sheet "Array Heatmap", total n = 4; for Array Heatmap value (peptide array signal): ING3, each array performed twice
How it was run: as §1

[12] = system: ING4; conditions: sheet "Array Heatmap", total n = 4; for Array Heatmap value (peptide array signal): ING4, each array performed twice
How it was run: as §1

[13] = system: ING5; conditions: sheet "Array Heatmap", total n = 4; for Array Heatmap value (peptide array signal): ING5, each array performed twice
How it was run: as §1

[14] = system: KDM4C (TTP); conditions: sheet "Array Heatmap", total n = 4; for Array Heatmap value (peptide array signal): KDM4C (TTP), each array performed twice
How it was run: as §1

[15] = system: KDM5A (1); conditions: sheet "Array Heatmap", total n = 4; for Array Heatmap value (peptide array signal): KDM5A (1), each array performed twice
How it was run: as §1

[16] = system: KDM5A (3); conditions: sheet "Array Heatmap", total n = 4; for Array Heatmap value (peptide array signal): KDM5A (3), each array performed twice
How it was run: as §1

[17] = system: KDM5B (1); conditions: sheet "Array Heatmap", total n = 4; for Array Heatmap value (peptide array signal): KDM5B (1), each array performed twice
How it was run: as §1

[18] = system: KDM5B (3); conditions: sheet "Array Heatmap", total n = 4; for Array Heatmap value (peptide array signal): KDM5B (3), each array performed twice
How it was run: as §1

[19] = system: KDM7A; conditions: sheet "Array Heatmap", total n = 4; for Array Heatmap value (peptide array signal): KDM7A, each array performed twice
How it was run: as §1

[20] = system: MLL5; conditions: sheet "Array Heatmap", total n = 4; for Array Heatmap value (peptide array signal): MLL5, each array performed twice
How it was run: as §1

[21] = system: MORC3 (CW); conditions: sheet "Array Heatmap", total n = 4; for Array Heatmap value (peptide array signal): MORC3 (CW), each array performed twice
How it was run: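 Readout is array binding signal, reported as the mean and standard deviation over four replicates. Each purified GST-fused PHD domain was incubated at 0.5 μM with a library of 293 modified histone peptides.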

[22] = system: PHF13; conditions: sheet "Array Heatmap", total n = 4; for Array Heatmap value (peptide array signal): PHF13, each array performed twice
How it was run: as §1

[23] = system: PHF21A; conditions: sheet "Array Heatmap", total n = 4; for Array Heatmap value (peptide array signal): PHF21A, each array performed twice
How it was run: as §1

[24] = system: PHF23; conditions: sheet "Array Heatmap", total n = 4; for Array Heatmap value (peptide array signal): PHF23, each array performed twice
How it was run: as §1

[25] = system: PHF2; conditions: sheet "Array Heatmap", total n = 4; for Array Heatmap value (peptide array signal): PHF2, each array performed twice
How it was run: as §1

[26] = system: PHF8; conditions: sheet "Array Heatmap", total n = 4; for Array Heatmap value (peptide array signal): PHF8, each array performed twice
How it was run: as §1

[27] = system: PHRF1 (RP); conditions: sheet "Array Heatmap", total n = 4; for Array Heatmap value (peptide array signal): PHRF1 (RP), each array performed twice
How it was run: as §1

[28] = system: RAG2; conditions: sheet "Array Heatmap", total n = 4; for Array Heatmap value (peptide array signal): RAG2, each array performed twice
How it was run: as §1

[29] = system: SP140L; conditions: sheet "Array Heatmap", total n = 4; for Array Heatmap value (peptide array signal): SP140L, each array performed twice
How it was run: as §1

[30] = system: TAF3; conditions: sheet "Array Heatmap", total n = 4; for Array Heatmap value (peptide array signal): TAF3, each array performed twice
How it was run: as §1

[31] = system: TRIM66 (PB); conditions: sheet "Array Heatmap", total n = 4; for Array Heatmap value (peptide array signal): TRIM66 (PB), each array performed twice
How it was run: as §1

[32] = GST-tagged reader, histone peptide array

“H2A.X K5ac: H2AX 1-17 (SGRGK(Ac)TGGKARAKAKSR; UniProt P16104 2-18, looked up, fragment)” was tested, and the “Array Heatmap value (peptide array signal)” value (“Array Heatmap value” below) [1] was 0.4642, the “Array Heatmap value” value [2] was 0.4631 and the “Array Heatmap value” value [3] was 0.3356. For the same substance, the “Array Heatmap value” value [4] was 0.5228, the “Array Heatmap value” value [5] was 0.7832 and the “Array Heatmap value” value [6] was 0.549. For the same substance, the “Array Heatmap value” value [7] was 0.6192, the “Array Heatmap value” value [8] was 0.6362 and the “Array Heatmap value” value [9] was 0.4851. The “Array Heatmap value” value [10] was 0.5785, the “Array Heatmap value” value [11] was 0.4453 and the “Array Heatmap value” value [12] was 0.4505. For the same substance, the “Array Heatmap value” value [13] was 0.3639, the “Array Heatmap value” value [14] was 0.5139 and the “Array Heatmap value” value [15] was 0.4768. For the same substance, the “Array Heatmap value” value [16] was 0.4343, the “Array Heatmap value” value [17] was 0.7034 and the “Array Heatmap value” value [18] was 0.4746. For the same substance, the “Array Heatmap value” value [19] was 0.4169, the “Array Heatmap value” value [20] was 0.5039 and the “Array Heatmap value” value [21] was 0.3506. For the same substance, the “Array Heatmap value” value [22] was 0.5821, the “Array Heatmap value” value [23] was 0.4552 and the “Array Heatmap value” value [24] was 0.5099. For the same substance, the “Array Heatmap value” value [25] was 0.3936, the “Array Heatmap value” value [26] was 0.3518 and the “Array Heatmap value” value [27] was 0.4233. The “Array Heatmap value” value [28] was 0.2437, the “Array Heatmap value” value [29] was 0.3645 and the “Array Heatmap value” value [30] was 0.2702. For the same substance, the “Array Heatmap value” value [31] was 0.5335.
In the case of H3.3K27hxo (15-34): H3.3 15-34, the “Array Heatmap value” value [1] is reported as 0.3038, the “Array Heatmap value” value [2] is reported as 0.3359 and the “Array Heatmap value” value [3] is reported as 0.2696. The “Array Heatmap value” value [4] was 0.4698, the “Array Heatmap value” value [5] was 0.595 and the “Array Heatmap value” value [6] was 0.3985. The “Array Heatmap value” value [7] was 0.6054, the “Array Heatmap value” value [8] was 0.5523 and the “Array Heatmap value” value [9] was 0.4956. The “Array Heatmap value” value [10] was 0.5803, the “Array Heatmap value” value [11] was 0.3628 and the “Array Heatmap value” value [12] was 0.3406. The “Array Heatmap value” value [13] was 0.2604, the “Array Heatmap value” value [14] was 0.3245 and the “Array Heatmap value” value [15] was 0.3701. The “Array Heatmap value” value [16] was 0.3948, the “Array Heatmap value” value [17] was 0.5964 and the “Array Heatmap value” value [18] was 0.3693. For the same substance, the “Array Heatmap value” value [19] was 0.2316, the “Array Heatmap value” value [20] was 0.4892 and the “Array Heatmap value” value [21] was 0.2947. The “Array Heatmap value” value [22] was 0.4541, the “Array Heatmap value” value [23] was 0.3552 and the “Array Heatmap value” value [24] was 0.4877. The “Array Heatmap value” value [25] was 0.4925, the “Array Heatmap value” value [26] was 0.2775 and the “Array Heatmap value” value [27] was 0.3528. The “Array Heatmap value” value [28] was 0.1931, the “Array Heatmap value” value [29] was 0.2976 and the “Array Heatmap value” value [30] was 0.2046. The “Array Heatmap value” value [31] was 0.4904.
“H3R2me2s + K4me3 + K9ac + K14ac + K18ac: H3 1-20” was tested, and the “Array Heatmap signal, AIRE (PP)” value [1, 32] was 0.3152, the “Array Heatmap signal, BAZ2B” value [2, 32] was 0.3825 and the “Array Heatmap signal, BPTF (PB)” value [3, 32] was 0.2994. The “Array Heatmap signal, CHD4 (PPCC)” value [4, 32] was 0.4966, the “Array Heatmap signal, CHD5 (PCC)” value [5, 32] was 0.6375 and the “Array Heatmap signal, CHD5 (PPCC)” value [6, 32] was 0.4157. For the same substance, the “Array Heatmap signal, DIDO1” value [7, 32] was 0.6935, the “Array Heatmap signal, DPF2 (PPC2W2)” value [8, 32] was 0.5621 and the “Array Heatmap signal, ING1” value [9, 32] was 0.5042. For the same substance, the “Array Heatmap signal, ING2” value [10, 32] was 0.6168, the “Array Heatmap signal, ING3” value [11, 32] was 0.3864 and the “Array Heatmap signal, ING4” value [12, 32] was 0.356. The “Array Heatmap signal, ING5” value [13, 32] was 0.2654, the “Array Heatmap signal, KDM4C (TTP)” value [14, 32] was 0.3487 and the “Array Heatmap signal, KDM5A (1)” value [15, 32] was 0.3527. The “Array Heatmap signal, KDM5A (3)” value [16, 32] was 0.5269, the “Array Heatmap signal, KDM5B (1)” value [17, 32] was 0.5889 and the “Array Heatmap signal, KDM5B (3)” value [18, 32] was 0.4309. The “Array Heatmap signal, KDM7A” value [19, 32] was 0.2957, the “Array Heatmap signal, MLL5” value [20, 32] was 0.5797 and the “Array Heatmap signal, MORC3 (CW)” value [21, 32] was 0.4658. For the same substance, the “Array Heatmap signal, PHF13” value [22, 32] was 0.4921, the “Array Heatmap signal, PHF21A” value [23, 32] was 0.377 and the “Array Heatmap signal, PHF23” value [24, 32] was 0.5367. For the same substance, the “Array Heatmap signal, PHF2” value [25, 32] was 0.5721, the “Array Heatmap signal, PHF8” value [26, 32] was 0.402 and the “Array Heatmap signal, PHRF1 (RP)” value [27, 32] was 0.3639. For the same substance, the “Array Heatmap signal, RAG2” value [28, 32] was 0.309, the “Array Heatmap signal, SP140L” value [29, 32] was 0.3075 and the “Array Heatmap signal, TAF3” value [30, 32] was 0.2641. For the same substance, the “Array Heatmap signal, TRIM66 (PB)” value [31, 32] was 0.4734.
